In patent US6852888B2, “Carboxylic acid derivatives” (Syngenta Crop Protection, Inc., priority 1998, dated 2005):
Blank lines part the entries; values can stand above or below the compound they belong to.

How the values were obtained:
Aphis craccivora = assay: Action against Aphis craccivora; assay type: in vivo; conditions: 400 ppm spray on infested pea seedlings, 20° C., evaluated 3 and 6 days later, read-out: percentage reduction in population (% activity)
Method: Action against Aphis craccivora
Pea seedlings are infested with Aphis craccivora, subsequently sprayed with a spray mixture comprising 400 ppm of the test compound and incubated at 20° C. The evaluation is carried out 3 and 6 days later. The percentage reduction in population (% activity) is determined by comparing the number of dead aphids on the treated plants with that on the untreated plants.

Myzus persicae = assay: Systemic action against Myzus persicae; assay type: in vivo; conditions: pea seedlings with roots in spray mixture of 400 ppm, 20° C., evaluated 3 and 6 days later
Method: Systemic Action against Myzus persicae
Pea seedlings are infested with Myzus persicae, and then placed with their roots in a spray mixture comprising 400 ppm of the test compound and incubated at 20° C. The evaluation is carried out 3 and 6 days later. The percentage reduction in population (% activity) is determined by comparing the number of dead aphids on the treated plants with that on the untreated plants.

Tetranychus urticae = assay: Action against Tetranychus urticae; assay type: in vivo; conditions: 400 ppm spray on young bean plants, mixed population, 6 days at 25° C.
Method: Action against Tetranychus urticae
Young bean plants are populated with a mixed population of Tetranychus urticae and sprayed one day later with an aqueous emulsion spray mixture comprising 400 ppm of the test compound. The plants are then incubated for 6 days at 25° C. and subsequently evaluated. The percentage reduction in population (% activity) is determined by comparing the number of dead eggs, larvae and adults on the treated plants with that on the untreated plants.

- melting point: 59 to 60 °C
SMILES: Cc1cc(OC(F)(F)C(F)Cl)ccc1NC(=O)CCCC=C(F)F (stereo not shown) [Compound 1.1, 6,6-Difluorohex-5-enoic acid [4-(2-chloro-1,1,2-trifluoroethoxy)-2-methylphenyl]amide]
- inhibition at 400 ppm (Aphis craccivora): > 80%

SMILES: O=C(CCCC=C(F)F)Nc1ccc(OC(F)(F)C(F)F)cc1 [Compound 1.3]
- percentage reduction in population (% activity) (Myzus persicae): more than 80%

SMILES: O=C(CCCC=C(F)F)Nc1cccc(OC(F)(F)C(F)F)c1 [Compound 1.17]
- percentage reduction in population (% activity) (Tetranychus urticae): more than 80%
